From the NIST ThermoML archive (doi:10.1021/je800193a)
± gives the expanded uncertainty stated by the source.

Test: excess molar enthalpy (molar enthalpy of mixing); xn = mol fraction of the nth substance listed
Settings: 101.3 kPa, Liquid, Flow calorimetry

CC(=O)c1ccccc1 [acetophenone] + O
excess molar enthalpy (298.2 K, x1 = 0.1002): 0.0169 ± 0.000478 kcal/mol
excess molar enthalpy (298.2 K, x1 = 0.1997): 0.033 ± 0.000789 kcal/mol
excess molar enthalpy (298.2 K, x1 = 0.3001): 0.0492 ± 0.00115 kcal/mol
excess molar enthalpy (298.2 K, x1 = 0.3991): 0.0652 ± 0.00148 kcal/mol
excess molar enthalpy (298.2 K, x1 = 0.5003): 0.0816 ± 0.00184 kcal/mol
excess molar enthalpy (298.2 K, x1 = 0.5991): 0.0975 ± 0.00217 kcal/mol
excess molar enthalpy (298.2 K, x1 = 0.6986): 0.113 ± 0.00263 kcal/mol
excess molar enthalpy (298.2 K, x1 = 0.7987): 0.129 ± 0.00287 kcal/mol
excess molar enthalpy (298.2 K, x1 = 0.8515): 0.138 ± 0.00311 kcal/mol
excess molar enthalpy (298.2 K, x1 = 0.8967): 0.141 ± 0.00311 kcal/mol
excess molar enthalpy (298.2 K, x1 = 0.9534): 0.0718 ± 0.00201 kcal/mol
excess molar enthalpy (313.2 K, x1 = 0.1002): 0.0217 ± 0.000574 kcal/mol
excess molar enthalpy (313.2 K, x1 = 0.1997): 0.0424 ± 0.001 kcal/mol
excess molar enthalpy (313.2 K, x1 = 0.3001): 0.0636 ± 0.00146 kcal/mol
excess molar enthalpy (313.2 K, x1 = 0.3991): 0.0846 ± 0.00189 kcal/mol
excess molar enthalpy (313.2 K, x1 = 0.5003): 0.106 ± 0.00237 kcal/mol
excess molar enthalpy (313.2 K, x1 = 0.5991): 0.127 ± 0.00287 kcal/mol
excess molar enthalpy (313.2 K, x1 = 0.6986): 0.148 ± 0.00335 kcal/mol
excess molar enthalpy (313.2 K, x1 = 0.7987): 0.168 ± 0.00359 kcal/mol
excess molar enthalpy (313.2 K, x1 = 0.8515): 0.175 ± 0.00382 kcal/mol
excess molar enthalpy (313.2 K, x1 = 0.8967): 0.16 ± 0.00359 kcal/mol
excess molar enthalpy (313.2 K, x1 = 0.9534): 0.0793 ± 0.00225 kcal/mol
excess molar enthalpy (328.2 K, x1 = 0.1002): 0.0313 ± 0.000789 kcal/mol
excess molar enthalpy (328.2 K, x1 = 0.1997): 0.0592 ± 0.00136 kcal/mol
excess molar enthalpy (328.2 K, x1 = 0.3001): 0.0876 ± 0.00196 kcal/mol
excess molar enthalpy (328.2 K, x1 = 0.3991): 0.116 ± 0.00263 kcal/mol
excess molar enthalpy (328.2 K, x1 = 0.5003): 0.145 ± 0.00311 kcal/mol
excess molar enthalpy (328.2 K, x1 = 0.5991): 0.173 ± 0.00382 kcal/mol
excess molar enthalpy (328.2 K, x1 = 0.6986): 0.201 ± 0.0043 kcal/mol
excess molar enthalpy (328.2 K, x1 = 0.7987): 0.229 ± 0.00502 kcal/mol
excess molar enthalpy (328.2 K, x1 = 0.8515): 0.24 ± 0.00526 kcal/mol
excess molar enthalpy (328.2 K, x1 = 0.8967): 0.189 ± 0.0043 kcal/mol
excess molar enthalpy (328.2 K, x1 = 0.9534): 0.0926 ± 0.00263 kcal/mol
excess molar enthalpy (338.2 K, x1 = 0.1002): 0.0342 ± 0.000837 kcal/mol
excess molar enthalpy (338.2 K, x1 = 0.1997): 0.0608 ± 0.00141 kcal/mol
excess molar enthalpy (338.2 K, x1 = 0.3001): 0.095 ± 0.00213 kcal/mol
excess molar enthalpy (338.2 K, x1 = 0.3991): 0.124 ± 0.00263 kcal/mol
excess molar enthalpy (338.2 K, x1 = 0.5003): 0.156 ± 0.00335 kcal/mol
excess molar enthalpy (338.2 K, x1 = 0.5991): 0.188 ± 0.00406 kcal/mol
excess molar enthalpy (338.2 K, x1 = 0.6986): 0.221 ± 0.00478 kcal/mol
excess molar enthalpy (338.2 K, x1 = 0.7987): 0.253 ± 0.0055 kcal/mol
excess molar enthalpy (338.2 K, x1 = 0.8515): 0.245 ± 0.00526 kcal/mol
excess molar enthalpy (338.2 K, x1 = 0.8967): 0.192 ± 0.0043 kcal/mol
excess molar enthalpy (338.2 K, x1 = 0.9534): 0.0937 ± 0.00263 kcal/mol
excess molar enthalpy (348.2 K, x1 = 0.1002): 0.0399 ± 0.001 kcal/mol
excess molar enthalpy (348.2 K, x1 = 0.1997): 0.0772 ± 0.00177 kcal/mol
excess molar enthalpy (348.2 K, x1 = 0.3001): 0.115 ± 0.00263 kcal/mol
excess molar enthalpy (348.2 K, x1 = 0.3991): 0.153 ± 0.00335 kcal/mol
excess molar enthalpy (348.2 K, x1 = 0.5003): 0.192 ± 0.0043 kcal/mol
excess molar enthalpy (348.2 K, x1 = 0.5991): 0.23 ± 0.00502 kcal/mol
excess molar enthalpy (348.2 K, x1 = 0.6986): 0.269 ± 0.00598 kcal/mol
excess molar enthalpy (348.2 K, x1 = 0.7987): 0.308 ± 0.00669 kcal/mol
excess molar enthalpy (348.2 K, x1 = 0.8515): 0.274 ± 0.00598 kcal/mol
excess molar enthalpy (348.2 K, x1 = 0.8967): 0.204 ± 0.00478 kcal/mol
excess molar enthalpy (348.2 K, x1 = 0.9534): 0.1 ± 0.00287 kcal/mol
